Assays:
[1] = test system: spontaneously hypertensive rats; experiment: Antihypertensive efficacy test in spontaneously hypertensive rats: systolic blood pressure change; type: in vivo, rat; conditions: SHR; for antihypertensive effect compared with the corresponding unsalted compound: oral administration; for antihypertensive effect compared with the corresponding unsalted compound / systolic blood pressure compared with the control group: result in words; for systolic blood pressure compared with the control group: after 3 hours of administration; for Systolic blood pressure change, 1 hour after administration (average ± standard error) / Systolic blood pressure change, 3 hours after administration (average ± standard error) / Systolic blood pressure change, 5 hours after administration (average ± standard error) / Systolic blood pressure change, 7 hours after administration (average ± standard error) / Systolic blood pressure change, 10 hours after administration (average ± standard error) / Systolic blood pressure change, 24 hours after administration (average ± standard error): intragastric, 1 mg/kg (calculated by effective dose of Azilsartan), relative to before administration
Protocol: (§1) 12-week-old spontaneously hypertensive rats (hereinafter referred to as SHR, purchased from Beijing Weitong Lihua Experimental Animal Technology Co., Ltd.) were anesthetized with 2.5% sodium pentobarbital for intraperitoneal injection. After that, the blood pressure sensing catheter of hypertension implant was inserted into their abdominal aorta, while the implant was fixed to the abdominal wall, and then postoperative daily care was performed after suturing. Rats with systolic blood pressure exceeding 160 mm Hg were divided into 3 groups (control group, QR01019 group and QR01019K group) wherein each group has 8 rats. The control group was administrated 0.5% sodium carboxymethylcellulose (hereinafter referred to as CMC-Na); QR01019 group and QR01019K group were respectively administered, both of which were dissolved by 0.5% CMC-Na, by intragastric administration, at a dose of 1 mg/kg (calculated by the effective dose of Azilsartan) and a volume calculated by 4 mL/kg. The systolic blood pressure and heart rate of SHR were compared before and after administration (the systolic blood pressure and heart rate of SHR before administration as reference value), which were detected three times at each time point with the average value recorded.

[2] = test system: spontaneously hypertensive rats; experiment: Heart rate change in spontaneously hypertensive rats; type: in vivo, rat; conditions: SHR; for heart rate lowering effect compared with the corresponding unsalted compound: oral administration, result in words; for Heart rate change, 1 hour after administration (average ± standard error) / Heart rate change, 3 hours after administration (average ± standard error) / Heart rate change, 5 hours after administration (average ± standard error) / Heart rate change, 7 hours after administration (average ± standard error) / Heart rate change, 10 hours after administration (average ± standard error) / Heart rate change, 24 hours after administration (average ± standard error): intragastric, 1 mg/kg (calculated by effective dose of Azilsartan), relative to before administration
Protocol: as §1

Compound | antihypertensive effect compared with the corresponding unsalted compound [1] | heart rate lowering effect compared with the corresponding unsalted compound [2] | also measured
CCOc1nc2cccc(C(=O)OCOC(=O)C(C)(C)C)c2n1Cc1ccc(-c2ccccc2-c2noc(=O)[n-]2)cc1.[K+] [QR01005K] | more potent and longer-lasting | more potent and longer-lasting | –
CCOc1nc2cccc(C(=O)OCCCCO[N+](=O)[O-])c2n1Cc1ccc(-c2ccccc2-c2noc(=O)[n-]2)cc1.[K+] [QR01008K] | more potent and longer-lasting | more potent and longer-lasting | –
CCOc1nc2cccc(C(=O)OCc3c(-c4ccccc4)no[n+]3[O-])c2n1Cc1ccc(-c2ccccc2-c2noc(=O)[n-]2)cc1.[K+] [QR01009K] | more potent and longer-lasting | more potent and longer-lasting | –
CCOc1nc2cccc(C(=O)OCCCCOc3no[n+]([O-])c3S(=O)(=O)c3ccccc3)c2n1Cc1ccc(-c2ccccc2-c2noc(=O)[n-]2)cc1.[K+] [QR01011K] | more potent and longer-lasting | more potent and longer-lasting | –
CCOc1nc2cccc(C(=O)OCc3oc(=S)oc3C)c2n1Cc1ccc(-c2ccccc2-c2noc(=O)[n-]2)cc1.[K+] [QR01013K] | more potent and longer-lasting | more potent and longer-lasting | –
CCOc1nc2cccc(C(=O)OCOC(=O)OCc3nc(C)c(C)nc3C)c2n1Cc1ccc(-c2ccccc2-c2noc(=O)[n-]2)cc1.[K+] [QR01017K] | more potent and longer-lasting | more potent and longer-lasting | –
CCOc1nc2cccc(C(=O)OC(C)OC(=O)OCc3nc(C)c(C)nc3C)c2n1Cc1ccc(-c2ccccc2-c2noc(=O)[n-]2)cc1.[K+] (stereo not drawn) [QR01019K] | more potent with a longer-lasting antihypertensive effect | more potent with a longer-lasting heart rate lowing effect | systolic blood pressure compared with the control group [1]: significantly decreased; Systolic blood pressure change, 1 hour after administration (average ± standard error) [1]: −7.0 ± 3.4 mmHg; Systolic blood pressure change, 3 hours after administration (average ± standard error) [1]: −34.3 ± 1.9 mmHg; Systolic blood pressure change, 5 hours after administration (average ± standard error) [1]: −46.5 ± 2.5 mmHg; Systolic blood pressure change, 7 hours after administration (average ± standard error) [1]: −49.4 ± 4.1 mmHg; Systolic blood pressure change, 10 hours after administration (average ± standard error) [1]: −45.3 ± 3.3 mmHg; Systolic blood pressure change, 24 hours after administration (average ± standard error) [1]: −25.9 ± 3.4 mmHg; Heart rate change, 1 hour after administration (average ± standard error) [2]: −3.6 ± 2.4 times/minute; Heart rate change, 3 hours after administration (average ± standard error) [2]: −5.0 ± 2.5 times/minute; Heart rate change, 5 hours after administration (average ± standard error) [2]: −10.1 ± 3.0 times/minute; Heart rate change, 7 hours after administration (average ± standard error) [2]: −17.5 ± 3.0 times/minute; Heart rate change, 10 hours after administration (average ± standard error) [2]: −25.4 ± 2.4 times/minute; Heart rate change, 24 hours after administration (average ± standard error) [2]: −28.6 ± 8 times/minute
CCOc1nc2cccc(C(=O)OC(C)OC(=O)OCc3nc(C)c(C)nc3C)c2n1Cc1ccc(-c2ccccc2-c2noc(=O)[nH]2)cc1 (stereo not drawn) [QR01019] | – | – | systolic blood pressure compared with the control group [1]: significantly decreased; Systolic blood pressure change, 1 hour after administration (average ± standard error) [1]: −4.9 ± 4.8 mmHg; Systolic blood pressure change, 3 hours after administration (average ± standard error) [1]: −22.0 ± 3.6 mmHg; Systolic blood pressure change, 5 hours after administration (average ± standard error) [1]: −30.5 ± 3.5 mmHg; Systolic blood pressure change, 7 hours after administration (average ± standard error) [1]: −38.8 ± 2.3 mmHg; Systolic blood pressure change, 10 hours after administration (average ± standard error) [1]: −33.0 ± 1.7 mmHg; Systolic blood pressure change, 24 hours after administration (average ± standard error) [1]: −10.2 ± 2.1 mmHg; Heart rate change, 1 hour after administration (average ± standard error) [2]: −3.4 ± 2.6 times/minute; Heart rate change, 3 hours after administration (average ± standard error) [2]: −2.33 ± 2.6 times/minute; Heart rate change, 5 hours after administration (average ± standard error) [2]: −6.5 ± 2.8 times/minute; Heart rate change, 7 hours after administration (average ± standard error) [2]: −6.2 ± 3.0 times/minute; Heart rate change, 10 hours after administration (average ± standard error) [2]: −12.3 ± 2.8 times/minute; Heart rate change, 24 hours after administration (average ± standard error) [2]: −6.7 ± 2.6 times/minute
CCOc1nc2cccc(C(=O)OCOC(=O)OCc3no[n+]([O-])c3C)c2n1Cc1ccc(-c2ccccc2-c2noc(=O)[n-]2)cc1.[K+] [QR01020K] | more potent and longer-lasting | more potent and longer-lasting | –
CCOc1nc2cccc(C(=O)OCc3no[n+]([O-])c3C)c2n1Cc1ccc(-c2ccccc2-c2noc(=O)[n-]2)cc1.[K+] [QR01023K] | more potent and longer-lasting | more potent and longer-lasting | –
CCOc1nc2cccc(C(=O)OCc3no[n+]([O-])c3C(C)(C)C)c2n1Cc1ccc(-c2ccccc2-c2noc(=O)[n-]2)cc1.[K+] [QR01026K] | more potent and longer-lasting | more potent and longer-lasting | –
CCOc1nc2cccc(C(=O)OCOC(=O)OCc3ccno3)c2n1Cc1ccc(-c2ccccc2-c2noc(=O)[n-]2)cc1.[K+] [QR01030K] | more potent and longer-lasting | more potent and longer-lasting | –
CCOc1nc2cccc(C(=O)OCOC(=O)OCc3cn(C)cn3)c2n1Cc1ccc(-c2ccccc2-c2noc(=O)[n-]2)cc1.[K+] [QR01031K] | more potent and longer-lasting | more potent and longer-lasting | –
CCOc1nc2cccc(C(=O)OCOC(=O)OCc3ccn(C)c3)c2n1Cc1ccc(-c2ccccc2-c2noc(=O)[n-]2)cc1.[K+] [QR01032K] | more potent and longer-lasting | more potent and longer-lasting | –
CCOc1nc2cccc(C(=O)OC(C)OC(=O)OCc3ccn(C)c3)c2n1Cc1ccc(-c2ccccc2-c2noc(=O)[n-]2)cc1.[K+] (stereo not drawn) [QR01033K] | more potent and longer-lasting | more potent and longer-lasting | –
CCOc1nc2cccc(C(=O)OCc3no[n+]([O-])c3CO[N+](=O)[O-])c2n1Cc1ccc(-c2ccccc2-c2noc(=O)[n-]2)cc1.[K+] [QR01034K] | more potent and longer-lasting | more potent and longer-lasting | –
CCOc1nc2cccc(C(=O)OC3CCc4c3no[n+]4[O-])c2n1Cc1ccc(-c2ccccc2-c2noc(=O)[n-]2)cc1.[K+] (stereo not drawn) [QR01035K] | more potent and longer-lasting | more potent and longer-lasting | –
CCOc1nc2cccc(C(=O)OCc3no[n+]([O-])c3C#N)c2n1Cc1ccc(-c2ccccc2-c2noc(=O)[n-]2)cc1.[K+] [QR01036K] | more potent and longer-lasting | more potent and longer-lasting | –
